The OligoGym collection
Oligonucleotides are given in HELM: sugar(base)linkage, 5' to 3'; d 2'-deoxyribose, r ribose, m 2'-O-methylribose, p phosphate. ss, as = sense and antisense strand
Also: test concentration or dose not given here.

Each substance was assayed against Cacnb1 (rat) (assay: reporter assay of Huesken 2005). Settings: siRNA.
“RNA1{r(C)p.r(G)p.r(A)p.r(A)p.r(A)p.r(C)p.r(U)p.r(C)p.r(U)p.r(G)p.r(U)p.r(C)p.r(U)p.r(A)p.r(C)p.r(A)p.r(C)p.r(G)p.r(G)p.d(T)p.d(T)}|RNA2{r(C)p.r(C)p.r(G)p.r(U)p.r(G)p.r(U)p.r(A)p.r(G)p.r(A)p.r(C)p.r(A)p.r(G)p.r(A)p.r(G)p.r(U)p.r(U)p.r(U)p.r(C)p.r(G)p.d(G)p.d(C)}$$$RNA1{StrandType:ss}|RNA2{StrandType:as}$” showed a normalised inhibition (eCFP-eYFP dual reporter) of 44%. In the case of “RNA1{r(C)p.r(G)p.r(A)p.r(G)p.r(C)p.r(G)p.r(C)p.r(U)p.r(C)p.r(C)p.r(A)p.r(A)p.r(C)p.r(A)p.r(C)p.r(U)p.r(C)p.r(G)p.r(C)p.d(T)p.d(T)}|RNA2{r(G)p.r(C)p.r(G)p.r(A)p.r(G)p.r(U)p.r(G)p.r(U)p.r(U)p.r(G)p.r(G)p.r(A)p.r(G)p.r(C)p.r(G)p.r(C)p.r(U)p.r(C)p.r(G)p.d(A)p.d(T)}$$$RNA1{StrandType:ss}|RNA2{StrandType:as}$”, the normalised inhibition (eCFP-eYFP dual reporter) is reported as 15.2%. With “RNA1{r(C)p.r(G)p.r(U)p.r(C)p.r(A)p.r(G)p.r(A)p.r(C)p.r(U)p.r(C)p.r(C)p.r(G)p.r(A)p.r(C)p.r(G)p.r(U)p.r(G)p.r(U)p.r(C)p.d(T)p.d(T)}|RNA2{r(G)p.r(A)p.r(C)p.r(A)p.r(C)p.r(G)p.r(U)p.r(C)p.r(G)p.r(G)p.r(A)p.r(G)p.r(U)p.r(C)p.r(U)p.r(G)p.r(A)p.r(C)p.r(G)p.d(G)p.d(C)}$$$RNA1{StrandType:ss}|RNA2{StrandType:as}$” the normalised inhibition (eCFP-eYFP dual reporter) was 77%. With “RNA1{r(C)p.r(U)p.r(A)p.r(U)p.r(C)p.r(C)p.r(C)p.r(G)p.r(C)p.r(C)p.r(A)p.r(A)p.r(G)p.r(A)p.r(C)p.r(A)p.r(C)p.r(C)p.r(U)p.d(T)p.d(T)}|RNA2{r(A)p.r(G)p.r(G)p.r(U)p.r(G)p.r(U)p.r(C)p.r(U)p.r(U)p.r(G)p.r(G)p.r(C)p.r(G)p.r(G)p.r(G)p.r(A)p.r(U)p.r(A)p.r(G)p.d(C)p.d(G)}$$$RNA1{StrandType:ss}|RNA2{StrandType:as}$” the normalised inhibition (eCFP-eYFP dual reporter) was 70.7%. Work on “RNA1{r(C)p.r(U)p.r(G)p.r(A)p.r(G)p.r(G)p.r(U)p.r(A)p.r(C)p.r(A)p.r(G)p.r(A)p.r(G)p.r(U)p.r(G)p.r(A)p.r(A)p.r(A)p.r(U)p.d(T)p.d(T)}|RNA2{r(A)p.r(U)p.r(U)p.r(U)p.r(C)p.r(A)p.r(C)p.r(U)p.r(C)p.r(U)p.r(G)p.r(U)p.r(A)p.r(C)p.r(C)p.r(U)p.r(C)p.r(A)p.r(G)p.d(C)p.d(C)}$$$RNA1{StrandType:ss}|RNA2{StrandType:as}$” yielded a normalised inhibition (eCFP-eYFP dual reporter) of 59.1%. In the case of “RNA1{r(C)p.r(U)p.r(G)p.r(G)p.r(C)p.r(U)p.r(G)p.r(A)p.r(G)p.r(G)p.r(U)p.r(A)p.r(C)p.r(A)p.r(G)p.r(A)p.r(G)p.r(U)p.r(G)p.d(T)p.d(T)}|RNA2{r(C)p.r(A)p.r(C)p.r(U)p.r(C)p.r(U)p.r(G)p.r(U)p.r(A)p.r(C)p.r(C)p.r(U)p.r(C)p.r(A)p.r(G)p.r(C)p.r(C)p.r(A)p.r(G)p.d(G)p.d(C)}$$$RNA1{StrandType:ss}|RNA2{StrandType:as}$”, the normalised inhibition (eCFP-eYFP dual reporter) is reported as 34.8%. Work on “RNA1{r(C)p.r(U)p.r(G)p.r(G)p.r(U)p.r(G)p.r(G)p.r(A)p.r(U)p.r(C)p.r(G)p.r(G)p.r(G)p.r(A)p.r(G)p.r(G)p.r(C)p.r(U)p.r(G)p.d(T)p.d(T)}|RNA2{r(C)p.r(A)p.r(G)p.r(C)p.r(C)p.r(U)p.r(C)p.r(C)p.r(C)p.r(G)p.r(A)p.r(U)p.r(C)p.r(C)p.r(A)p.r(C)p.r(C)p.r(A)p.r(G)p.d(T)p.d(C)}$$$RNA1{StrandType:ss}|RNA2{StrandType:as}$” yielded a normalised inhibition (eCFP-eYFP dual reporter) of 40.7%. “RNA1{r(C)p.r(U)p.r(U)p.r(G)p.r(G)p.r(A)p.r(A)p.r(G)p.r(C)p.r(C)p.r(U)p.r(A)p.r(C)p.r(U)p.r(G)p.r(G)p.r(A)p.r(A)p.r(G)p.d(T)p.d(T)}|RNA2{r(C)p.r(U)p.r(U)p.r(C)p.r(C)p.r(A)p.r(G)p.r(U)p.r(A)p.r(G)p.r(G)p.r(C)p.r(U)p.r(U)p.r(C)p.r(C)p.r(A)p.r(A)p.r(G)p.d(T)p.d(A)}$$$RNA1{StrandType:ss}|RNA2{StrandType:as}$” was tested, and the normalised inhibition (eCFP-eYFP dual reporter) was 60.9%. “RNA1{r(G)p.r(A)p.r(A)p.r(C)p.r(C)p.r(G)p.r(C)p.r(A)p.r(C)p.r(C)p.r(A)p.r(U)p.r(G)p.r(G)p.r(C)p.r(U)p.r(A)p.r(C)p.r(C)p.d(T)p.d(T)}|RNA2{r(G)p.r(G)p.r(U)p.r(A)p.r(G)p.r(C)p.r(C)p.r(A)p.r(U)p.r(G)p.r(G)p.r(U)p.r(G)p.r(C)p.r(G)p.r(G)p.r(U)p.r(U)p.r(C)p.d(A)p.d(G)}$$$RNA1{StrandType:ss}|RNA2{StrandType:as}$” was tested, and the normalised inhibition (eCFP-eYFP dual reporter) was 49%. Work on “RNA1{r(G)p.r(A)p.r(G)p.r(A)p.r(U)p.r(C)p.r(C)p.r(C)p.r(U)p.r(A)p.r(U)p.r(G)p.r(G)p.r(A)p.r(G)p.r(G)p.r(U)p.r(C)p.r(U)p.d(T)p.d(T)}|RNA2{r(A)p.r(G)p.r(A)p.r(C)p.r(C)p.r(U)p.r(C)p.r(C)p.r(A)p.r(U)p.r(A)p.r(G)p.r(G)p.r(G)p.r(A)p.r(U)p.r(C)p.r(U)p.r(C)p.d(T)p.d(T)}$$$RNA1{StrandType:ss}|RNA2{StrandType:as}$” yielded a normalised inhibition (eCFP-eYFP dual reporter) of 71.5%. “RNA1{r(G)p.r(A)p.r(G)p.r(U)p.r(G)p.r(A)p.r(A)p.r(A)p.r(U)p.r(C)p.r(G)p.r(A)p.r(G)p.r(C)p.r(G)p.r(G)p.r(A)p.r(U)p.r(C)p.d(T)p.d(T)}|RNA2{r(G)p.r(A)p.r(U)p.r(C)p.r(C)p.r(G)p.r(C)p.r(U)p.r(C)p.r(G)p.r(A)p.r(U)p.r(U)p.r(U)p.r(C)p.r(A)p.r(C)p.r(U)p.r(C)p.d(T)p.d(G)}$$$RNA1{StrandType:ss}|RNA2{StrandType:as}$” was tested, and the normalised inhibition (eCFP-eYFP dual reporter) was 84.9%. “RNA1{r(G)p.r(C)p.r(A)p.r(G)p.r(A)p.r(G)p.r(U)p.r(C)p.r(C)p.r(U)p.r(A)p.r(C)p.r(A)p.r(C)p.r(G)p.r(A)p.r(G)p.r(C)p.r(C)p.d(T)p.d(T)}|RNA2{r(G)p.r(G)p.r(C)p.r(U)p.r(C)p.r(G)p.r(U)p.r(G)p.r(U)p.r(A)p.r(G)p.r(G)p.r(A)p.r(C)p.r(U)p.r(C)p.r(U)p.r(G)p.r(C)p.d(T)p.d(G)}$$$RNA1{StrandType:ss}|RNA2{StrandType:as}$” gave a normalised inhibition (eCFP-eYFP dual reporter) of 79.4%. “RNA1{r(G)p.r(C)p.r(C)p.r(A)p.r(A)p.r(A)p.r(A)p.r(C)p.r(C)p.r(G)p.r(C)p.r(C)p.r(U)p.r(C)p.r(A)p.r(G)p.r(C)p.r(U)p.r(C)p.d(T)p.d(T)}|RNA2{r(G)p.r(A)p.r(G)p.r(C)p.r(U)p.r(G)p.r(A)p.r(G)p.r(G)p.r(C)p.r(G)p.r(G)p.r(U)p.r(U)p.r(U)p.r(U)p.r(G)p.r(G)p.r(C)p.d(G)p.d(C)}$$$RNA1{StrandType:ss}|RNA2{StrandType:as}$” showed a normalised inhibition (eCFP-eYFP dual reporter) of 54.1%. Substance “RNA1{r(G)p.r(C)p.r(C)p.r(C)p.r(A)p.r(C)p.r(A)p.r(G)p.r(G)p.r(G)p.r(C)p.r(A)p.r(A)p.r(A)p.r(U)p.r(A)p.r(C)p.r(A)p.r(G)p.d(T)p.d(T)}|RNA2{r(C)p.r(U)p.r(G)p.r(U)p.r(A)p.r(U)p.r(U)p.r(U)p.r(G)p.r(C)p.r(C)p.r(C)p.r(U)p.r(G)p.r(U)p.r(G)p.r(G)p.r(G)p.r(C)p.d(T)p.d(G)}$$$RNA1{StrandType:ss}|RNA2{StrandType:as}$” has a normalised inhibition (eCFP-eYFP dual reporter) of 75.8%. For “RNA1{r(G)p.r(G)p.r(C)p.r(C)p.r(G)p.r(G)p.r(U)p.r(U)p.r(C)p.r(U)p.r(G)p.r(G)p.r(G)p.r(G)p.r(C)p.r(G)p.r(C)p.r(A)p.r(A)p.d(T)p.d(T)}|RNA2{r(U)p.r(U)p.r(G)p.r(C)p.r(G)p.r(C)p.r(C)p.r(C)p.r(C)p.r(A)p.r(G)p.r(A)p.r(A)p.r(C)p.r(C)p.r(G)p.r(G)p.r(C)p.r(C)p.d(C)p.d(A)}$$$RNA1{StrandType:ss}|RNA2{StrandType:as}$”, the normalised inhibition (eCFP-eYFP dual reporter) was 79.6%. “RNA1{r(G)p.r(G)p.r(C)p.r(U)p.r(C)p.r(C)p.r(U)p.r(G)p.r(G)p.r(G)p.r(A)p.r(A)p.r(G)p.r(A)p.r(G)p.r(G)p.r(A)p.r(G)p.r(G)p.d(T)p.d(T)}|RNA2{r(C)p.r(C)p.r(U)p.r(C)p.r(C)p.r(U)p.r(C)p.r(U)p.r(U)p.r(C)p.r(C)p.r(C)p.r(A)p.r(G)p.r(G)p.r(A)p.r(G)p.r(C)p.r(C)p.d(C)p.d(T)}$$$RNA1{StrandType:ss}|RNA2{StrandType:as}$” gave a normalised inhibition (eCFP-eYFP dual reporter) of 46.7%. Substance “RNA1{r(G)p.r(G)p.r(G)p.r(G)p.r(A)p.r(G)p.r(C)p.r(U)p.r(G)p.r(G)p.r(G)p.r(C)p.r(C)p.r(A)p.r(G)p.r(C)p.r(C)p.r(C)p.r(C)p.d(T)p.d(T)}|RNA2{r(G)p.r(G)p.r(G)p.r(G)p.r(C)p.r(U)p.r(G)p.r(G)p.r(C)p.r(C)p.r(C)p.r(A)p.r(G)p.r(C)p.r(U)p.r(C)p.r(C)p.r(C)p.r(C)p.d(G)p.d(G)}$$$RNA1{StrandType:ss}|RNA2{StrandType:as}$” has a normalised inhibition (eCFP-eYFP dual reporter) of 19.2%. “RNA1{r(G)p.r(U)p.r(A)p.r(C)p.r(U)p.r(G)p.r(C)p.r(A)p.r(G)p.r(A)p.r(G)p.r(G)p.r(C)p.r(U)p.r(C)p.r(A)p.r(U)p.r(C)p.r(A)p.d(T)p.d(T)}|RNA2{r(U)p.r(G)p.r(A)p.r(U)p.r(G)p.r(A)p.r(G)p.r(C)p.r(C)p.r(U)p.r(C)p.r(U)p.r(G)p.r(C)p.r(A)p.r(G)p.r(U)p.r(A)p.r(C)p.d(C)p.d(T)}$$$RNA1{StrandType:ss}|RNA2{StrandType:as}$” gave a normalised inhibition (eCFP-eYFP dual reporter) of 73.6%. Work on “RNA1{r(G)p.r(U)p.r(G)p.r(C)p.r(C)p.r(A)p.r(A)p.r(A)p.r(C)p.r(A)p.r(G)p.r(A)p.r(A)p.r(G)p.r(C)p.r(A)p.r(G)p.r(A)p.r(A)p.d(T)p.d(T)}|RNA2{r(U)p.r(U)p.r(C)p.r(U)p.r(G)p.r(C)p.r(U)p.r(U)p.r(C)p.r(U)p.r(G)p.r(U)p.r(U)p.r(U)p.r(G)p.r(G)p.r(C)p.r(A)p.r(C)p.d(T)p.d(G)}$$$RNA1{StrandType:ss}|RNA2{StrandType:as}$” yielded a normalised inhibition (eCFP-eYFP dual reporter) of 82.1%. In the case of “RNA1{r(G)p.r(U)p.r(G)p.r(C)p.r(G)p.r(G)p.r(A)p.r(G)p.r(G)p.r(G)p.r(U)p.r(G)p.r(G)p.r(U)p.r(G)p.r(G)p.r(G)p.r(C)p.r(C)p.d(T)p.d(T)}|RNA2{r(G)p.r(G)p.r(C)p.r(C)p.r(C)p.r(A)p.r(C)p.r(C)p.r(A)p.r(C)p.r(C)p.r(C)p.r(U)p.r(C)p.r(C)p.r(G)p.r(C)p.r(A)p.r(C)p.d(A)p.d(G)}$$$RNA1{StrandType:ss}|RNA2{StrandType:as}$”, the normalised inhibition (eCFP-eYFP dual reporter) is reported as 52.4%.
